Columns and labels:
[1] = system: GFP-CHMP4B-expressing U2OS cells; test: GFP-CHMP4B accumulation cell-based assay (high-content microscopy)
Method in brief: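 GFP-CHMP4B U2OS cells were cultured overnight, stained, then treated in SM with compounds (0.1% DMSO or 0.1% DMSO/0.1% ethanol vehicle final). High-content imaging used a 20× NA .70 objective at set intervals, ≥300 cells/well over 3 fields/well.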

Caco-2 permeability = assay type: in vitro ADME; settings: human, 10 μM of compound
Description: All in vitro absorption, distribution, metabolism, and excretion (ADME) studies were conducted by BioDuro-Sundia. […] Caco-2 permeability, human liver microsomal stability, and human plasma protein binding assays as well as liquid chromatography-mass spectrometry/mass spectrometry analyses were performed following standard protocols previously described in detail ([Kazakova et al, 2023]).

[2] = Escalating dose MTD study; assay type: in vivo; settings: daily doses increasing 50% each day from 5 mg/kg, B6 mice
Description: All animal studies were performed in accordance with the guidelines of the Institutional Animal Care and Use Committee at the Penn State College of Medicine (IACUC # PRAMS201145989). To determine the maximum tolerated dose (MTD) of 4-107, escalating and acute dose studies were performed. The escalating MTD study used an intra-animal design where each mouse received daily doses of 4-107 that increased 50% each day from a starting dose of 5 mg/kg. Six female C57BL/6J (B6) (The Jackson Laboratory; 000664) were administered 4-107 either orally via oral gavage or via intraperitoneal injection with 3 mice per group. The acute MTD study had groups of mice receive daily consistent doses of 4-107 i.p. Here, B6 mice were administered 4-107 at either 5 (n = 4; 2 males [M], 2 females [F]), 10 (n = 4; 2 M, 2 F), 15 (n = 5; all M), or 20 mg/kg (n = 5; all M). In both studies, 4-107 dissolved in DMSO was mixed into 30% propylene glycol, 5% Tween 80, and 65% of 5% dextrose in water (PTD [vehicle]) with a final DMSO concentration of ≤ 3%. […] BCS was determined by posture and prominence of skeletal features upon visual inspection and palpation, where BCS < 2 indicated a hunched posture and emaciation. […] The MTD was determined as the highest dose of 4-107 administered without mice reaching the toxicity endpoints.

VPS4B = target: T1, VPS4B (Homo sapiens, UniProt O75351); test: VPS4B ATPase activity, EnzChek Phosphate assay; assay type: biochemical; parameters: His tag (pET28a vector-encoded) (N); made in house; host or cells: Escherichia coli BL21(DE3)
T1 sequence (O75351 1-444): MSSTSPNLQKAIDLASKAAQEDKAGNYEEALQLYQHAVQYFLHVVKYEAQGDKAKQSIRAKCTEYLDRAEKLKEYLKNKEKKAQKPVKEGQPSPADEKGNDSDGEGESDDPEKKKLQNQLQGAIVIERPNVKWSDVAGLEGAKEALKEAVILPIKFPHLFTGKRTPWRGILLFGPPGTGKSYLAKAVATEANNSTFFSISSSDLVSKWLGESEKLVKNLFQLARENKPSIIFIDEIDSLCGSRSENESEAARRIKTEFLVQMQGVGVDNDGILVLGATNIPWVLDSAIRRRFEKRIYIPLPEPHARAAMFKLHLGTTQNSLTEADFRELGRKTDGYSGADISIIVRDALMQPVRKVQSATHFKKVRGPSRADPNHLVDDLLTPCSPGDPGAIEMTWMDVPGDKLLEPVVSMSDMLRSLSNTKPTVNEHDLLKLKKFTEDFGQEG
Method in brief: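 EnzChek phosphate release (MESG/PNP, 360 nm) with ATPases at 1 μM (diluted stock) in HEPES pH 7.4 buffers with MgCl2, CaCl2, DTT, BSA, Triton; 30 min compound preincubation at RT, started with MgATP, read 20 min at 37 °C. Activity from 5-min linear initial rate, normalized to DMSO; IC50 from Hill slope −1 fit.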

In the case of `COc1cccc2c(NCc3ccccc3)nc(NCc3ccccc3)nc12` [Compound 4-107, N^2,N^4-dibenzyl-8-methoxyquinazoline-2,4-diamine], the “GFP-CHMP4B (% 4-107)” value ([1]; screened at 1 µM, mean ± S.D., Supplemental Table 2) is reported as 100.00 ± 17.20 % 4-107, the “GFP-CHMP4B (% 4-107)” value ([1]; screened at 1 μM, starvation media, 1 hour, foci intensity per cell normalized to 4-107, mean ± SD, Table 1, listed as 1) is reported as 100.00 ± 17.20 % 4-107 and the Papp A→B at 10 μM (Caco-2 permeability) is reported as 0.03 ×10⁻⁶ cm/s. The Papp B→A at 10 μM (Caco-2 permeability) was 0.3 ×10⁻⁶ cm/s, the efflux ratio at 10 μM (Caco-2 permeability) was 10.3 and the “doses exhibiting toxicity, intraperitoneal route” value ([2]; i.p.) was “above 25 mg/kg”. The “well tolerated dose, oral route” value ([2]; oral gavage, doses up to) was “approximately 90 mg/kg”, the IC50 (VPS4B; 0.5 μM enzyme) was 3.7 ± 0.1 µM and the “VPS4B ATPase (% DMSO)” value (VPS4B; remaining ATPase activity, screened at 5 μM, mean ± SD, Table 1, listed as 1) was 36.67 ± 1.73 % DMSO. The “VPS4B ATPase (% DMSO)” value (VPS4B; screened at 5 µM, mean ± S.D., Supplemental Table 2) was 36.67 ± 1.73 % DMSO.
